From patent US20030135033A1, “Compounds and methods for the identification and/ or validation of a target” (priority 2002, published 2003)
d = 2'-deoxy (DNA); m = 2'-O-methyl

How the values were obtained:
[1] = system: PI 3-kinase; assay: Akt phosphorylation induced by PTEN GeneBlocs in 3Y1 cells in presence of PI 3-kinase inhibitor; type: cell-based, rat; conditions: 30 nM PTEN 53 or 57, 48 h, 10 μM LY294002 30 min before lysis
[2] = system: Hela cells; assay: Cell growth on matrigel; type: cell-based, human; conditions: 48 h transfection, then 48 to 72 h on matrigel, versus control GeneBloc
Text: More particularly, a schematic pathway with PTEN inhibiting PI-3K activity is shown which would normally phosphorylate Akt thus leading to proliferation, survival and migration of HeLa cells as a model system for PTEN +/+ cells. FIG. 9 B presents the Western immunoblot analysis of an experiment studying the influence of PTEN specific antisense oligonucleotide or a control antisense nucleotide designated as mismatch GeneBloc™. PTEN is only present in the control sample, but is absent when PTEN-specific antisense oligonucleotides are used. The successful knockdown of PTEN causes phosphorylation of Akt, indicative of induction of the signalling pathway. […] Growth on matrigel is used as a surrogate in vitro assay for metastatic or invasive cell growth. […]
Loss of PTEN function has been correlated with an increased metastatic growth potential in late stage human cancers (Cantley, L. C. and Neel, B. G. (1999). New insights into tumor suppression: PTEN suppresses tumor formation by restraining the phosphoinositide 3-kinase/AKT pathway. Proc Natl Acad Sci U S A 96, 4240-4245; Ali, I. U. (2000). Gatekeeper for endometrium: the PTEN tumor suppressor gene. J Natl Cancer Inst 92, 861-863). […] HeLa cells expressing an inducible version of a constitutively active PI 3-kinase, p110* […] were analyzed in parallel. […]

[3] = system: MEK; assay: Akt phosphorylation induced by PTEN GeneBlocs in 3Y1 cells in presence of MEK inhibitor; type: cell-based, rat; conditions: 30 nM PTEN 53 or 57, 48 h, 50 μM PD98059 30 min before lysis
Procedure: In this experiment two different antisense oligonucleotides (PTEN 53 and PTEN 57) were used together with further compounds, namely DMSO (D), Ly294002 (Ly) and PD98059 (PD) being an inhibitor for MEK-½ kinase. More particularly, the first test was carried out using the antisense oligonucleotide PTEN 53 in combination either with DMSO, LY or PD. The same experiment was carried out using PTEN 57 also directed against PTEN mRNA, and using GBC as defined above as a control antisense oligonucleotide. More particularly, 3Y1 cells on 10 cm plates were transfected in triplicates with 30 nM of the GeneBlocs PTEN 53, 57 or with GBC for 48 h. 30 min before lysis the cells were treated with 10 μM PI 3-kinase inhibitor LY294002 (LY), 50 μM MEK inhibitor PD98059 (PD) or with the vehicle DMSO (D). The positions of p110, phosphorylated Akt (P*-Akt) and PTEN are indicated on the right. […]
Pools of stably transfected HeLa cells in growth medium were stimulated with 200 nM 4-OHT in dimethylsulfoxide (DMSO) or with DMSO at 37° C. for 20 h. In experiments in which the effect of LY294002 or PD98059 was analyzed, the reagents were added in DMSO at 10 μg/ml or 50 μg/ml 30 min to 1 h before lysis. […]

Q: For `O=c1cc(N2CCOCC2)oc2c(-c3ccccc3)cccc12` [LY294002, 2-(4-morpholinyl)-8-phenylchromone], which “increase in Akt phosphorylation induced by the PTEN GeneBlocs” value [1] is on record?
A: Its value is “completely abrogated”.

Q: For “cuggaucAGAGTCAGTgguguca (CUGGAUCAGAGTCAGTGGUGUCA; sugars from the 5' end m7 d9 m7, backbone and methylation of C not given here; DNA gap phosphorothioate-linked, ends capped, inverted abasic or similar, further chemistry not fully specified) [PTEN 52, third generation antisense oligonucleotide (GeneBloc) against PTEN]”, which growth on matrigel [2] is on record?
A: The growth on matrigel was “increased potential to form network structures on matrigel and grew better”.

Q: How did the “increase in Akt phosphorylation induced by the PTEN GeneBlocs” value [3] turn out when `COc1cccc(-c2cc(=O)c3ccccc3o2)c1N` [PD98059] was run?
A: Its value is “had no effect”.
